According to BindingDB's records for patent US20240124450 (Pfizer, 2024):

Assays:
Assay in all cases: Enzyme Assay: Pan SIK MS IC50 Assay
[1] = target: Serine/threonine-protein kinase SIK3 (Homo sapiens, UniProt Q9Y2K2)
Method: (§1) Salt Induced Kinase (SIK) activity is determined by measuring the effect of a test agent on the activity of the appropriate SIK enzyme to phosphorylate its corresponding substrate. […] The phosphorylated substrate product resulting from the kinase reaction is detected by LCMS/MS, and the area under the peak curve correlates with kinase activity. […] The plates are spun at 1000 rpm for 30 seconds to ensure compounds are at the bottom of the well before removing foil covers. 0.15 μL HPE (assay std) and ZPE (DMSO) are added to the ARP using an HP D300 dispenser. Plates are spun again at 1000 rpm for 30 seconds. […] Plates are spun at 1000 rpm for 30 seconds. Plates are then sealed and incubated at RT for 10 minutes. Following incubation, 5 μL of 5× peptide reagent is added with a Multidrop Combi and designated small volume cassette to initiate the kinase reaction. Plates are spun at 1000 rpm for 30 seconds. Plates are then sealed and incubated at RT for 90 minutes. The assay is stopped by the addition of 5 μl of 120 mM EDTA added with a Multidrop Combi and designated small volume cassette (20 mM final concentration). Plates are spun at 1000 rpm for 30 seconds. 10 μl of the final reaction mix from each of the three individual enzyme plates are transferred by a Platemate Plus to the same corresponding 96 well deepwell plate containing 70 μl Water/Methanol (85/15%) for multiplex MS detection ([…]). Using Activity Base (ABase), an idbs data analysis software tool, the reported area ratio unit data is associated to compound, batch and dose information, the data is evaluated for quality, and the percent inhibition of each well is calculated. The data from each Max effect/HPE and Min effect/ZPE control wells are assessed, and outliers are excluded from all further calculations. The mean and standard deviation of the HPE and ZPE are then calculated for each plate, along with the Z Prime. The compound data is converted into % effect, using the average ZPE and HPE controls as 0% and 100% activity, respectively.

[2] = target: Serine/threonine-protein kinase SIK1 (Homo sapiens, UniProt P57059)
Serine/threonine-protein kinase SIK1, sequence (P57059 whole entry): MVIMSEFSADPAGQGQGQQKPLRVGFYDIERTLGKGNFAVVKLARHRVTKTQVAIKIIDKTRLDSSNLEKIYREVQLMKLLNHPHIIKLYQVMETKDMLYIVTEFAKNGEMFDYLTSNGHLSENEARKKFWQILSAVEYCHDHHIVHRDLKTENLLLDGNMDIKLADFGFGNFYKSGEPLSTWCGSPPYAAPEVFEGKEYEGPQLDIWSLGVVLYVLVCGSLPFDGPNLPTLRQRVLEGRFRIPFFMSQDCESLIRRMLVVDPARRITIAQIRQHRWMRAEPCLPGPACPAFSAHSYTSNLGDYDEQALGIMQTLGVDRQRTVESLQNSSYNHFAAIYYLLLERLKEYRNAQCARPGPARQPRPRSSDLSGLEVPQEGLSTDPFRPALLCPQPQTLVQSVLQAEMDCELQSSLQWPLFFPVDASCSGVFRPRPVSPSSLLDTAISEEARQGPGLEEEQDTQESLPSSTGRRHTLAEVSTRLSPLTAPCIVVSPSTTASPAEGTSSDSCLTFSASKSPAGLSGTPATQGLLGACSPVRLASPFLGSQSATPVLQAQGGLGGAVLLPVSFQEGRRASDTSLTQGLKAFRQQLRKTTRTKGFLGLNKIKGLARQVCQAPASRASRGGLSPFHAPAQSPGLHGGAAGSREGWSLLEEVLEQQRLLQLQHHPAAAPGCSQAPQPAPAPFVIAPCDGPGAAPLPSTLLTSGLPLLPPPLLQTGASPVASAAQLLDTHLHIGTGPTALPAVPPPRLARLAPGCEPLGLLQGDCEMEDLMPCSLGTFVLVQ
Method: as §1

[3] = target: Serine/threonine-protein kinase SIK2 (Homo sapiens, UniProt Q9H0K1)
Serine/threonine-protein kinase SIK2, sequence (Q9H0K1 whole entry): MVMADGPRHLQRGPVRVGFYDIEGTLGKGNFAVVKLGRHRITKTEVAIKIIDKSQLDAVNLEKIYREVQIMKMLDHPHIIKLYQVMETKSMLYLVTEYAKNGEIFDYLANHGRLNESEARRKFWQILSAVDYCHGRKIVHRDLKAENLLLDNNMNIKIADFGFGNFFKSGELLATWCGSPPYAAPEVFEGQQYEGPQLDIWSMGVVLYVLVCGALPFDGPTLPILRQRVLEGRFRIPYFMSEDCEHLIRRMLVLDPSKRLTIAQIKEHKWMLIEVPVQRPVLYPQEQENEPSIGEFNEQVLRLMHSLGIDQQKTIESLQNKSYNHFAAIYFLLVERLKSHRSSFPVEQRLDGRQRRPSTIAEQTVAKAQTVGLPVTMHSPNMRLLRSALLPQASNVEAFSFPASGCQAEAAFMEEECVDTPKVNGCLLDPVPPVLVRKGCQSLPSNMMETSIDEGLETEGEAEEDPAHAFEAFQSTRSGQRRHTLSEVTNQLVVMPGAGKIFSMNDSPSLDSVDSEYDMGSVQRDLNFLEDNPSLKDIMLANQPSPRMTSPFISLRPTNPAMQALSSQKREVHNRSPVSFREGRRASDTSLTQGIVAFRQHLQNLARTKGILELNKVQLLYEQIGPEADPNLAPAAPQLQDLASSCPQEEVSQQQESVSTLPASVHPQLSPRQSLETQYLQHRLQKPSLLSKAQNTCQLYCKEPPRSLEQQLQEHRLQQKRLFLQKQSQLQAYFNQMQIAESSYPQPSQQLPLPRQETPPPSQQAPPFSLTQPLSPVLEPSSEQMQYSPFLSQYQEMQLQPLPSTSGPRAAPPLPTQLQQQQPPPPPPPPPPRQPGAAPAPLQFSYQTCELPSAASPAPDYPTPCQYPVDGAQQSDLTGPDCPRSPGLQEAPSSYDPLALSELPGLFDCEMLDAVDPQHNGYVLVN
Method: as §1

Serine/threonine-protein kinase SIK3, sequence (Q9Y2K2 whole entry): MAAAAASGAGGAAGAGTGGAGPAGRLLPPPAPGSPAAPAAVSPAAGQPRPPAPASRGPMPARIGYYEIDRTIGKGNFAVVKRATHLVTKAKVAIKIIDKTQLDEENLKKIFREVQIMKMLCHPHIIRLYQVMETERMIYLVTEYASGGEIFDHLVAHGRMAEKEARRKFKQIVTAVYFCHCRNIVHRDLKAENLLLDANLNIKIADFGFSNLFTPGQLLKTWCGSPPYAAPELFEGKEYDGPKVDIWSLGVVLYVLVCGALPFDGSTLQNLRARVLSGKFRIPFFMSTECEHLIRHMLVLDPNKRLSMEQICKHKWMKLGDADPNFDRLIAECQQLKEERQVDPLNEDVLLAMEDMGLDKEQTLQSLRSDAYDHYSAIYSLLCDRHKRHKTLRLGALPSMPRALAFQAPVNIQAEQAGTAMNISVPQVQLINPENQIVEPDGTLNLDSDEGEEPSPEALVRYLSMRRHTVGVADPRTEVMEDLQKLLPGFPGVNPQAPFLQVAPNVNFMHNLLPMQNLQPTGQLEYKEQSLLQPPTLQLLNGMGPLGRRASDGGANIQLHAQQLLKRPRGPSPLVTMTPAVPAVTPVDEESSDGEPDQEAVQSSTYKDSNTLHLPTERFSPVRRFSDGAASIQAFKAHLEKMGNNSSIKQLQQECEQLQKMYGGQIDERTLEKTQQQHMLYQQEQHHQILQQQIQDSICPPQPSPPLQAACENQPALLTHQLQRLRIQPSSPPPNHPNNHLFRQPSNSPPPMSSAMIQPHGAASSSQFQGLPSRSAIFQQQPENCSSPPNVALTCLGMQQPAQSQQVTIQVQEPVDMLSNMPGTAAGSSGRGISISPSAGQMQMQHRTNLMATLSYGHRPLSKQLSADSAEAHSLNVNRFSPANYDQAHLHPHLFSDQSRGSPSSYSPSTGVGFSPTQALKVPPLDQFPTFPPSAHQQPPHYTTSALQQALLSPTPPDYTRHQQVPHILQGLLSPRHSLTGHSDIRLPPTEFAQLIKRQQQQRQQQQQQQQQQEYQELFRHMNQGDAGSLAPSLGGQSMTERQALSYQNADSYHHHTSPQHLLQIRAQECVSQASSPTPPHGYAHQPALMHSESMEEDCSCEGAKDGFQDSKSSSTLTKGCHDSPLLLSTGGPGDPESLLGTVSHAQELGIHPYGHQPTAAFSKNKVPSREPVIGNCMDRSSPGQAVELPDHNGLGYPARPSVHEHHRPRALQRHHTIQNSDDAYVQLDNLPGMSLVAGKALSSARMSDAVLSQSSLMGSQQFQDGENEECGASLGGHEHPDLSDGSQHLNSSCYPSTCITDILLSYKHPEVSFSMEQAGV

Compound: CC[C@@H]1CCC[C@@]1(N)COc1cc(-c2cnc3cccc(OC)n23)cc(SC)c1C#N (mixture of isomers) [US20240124450, Example 9]
- IC50 [1]: 2 nM
- IC50 [2]: 0.9 nM

Compound: CSc1cc(-c2cnc3cccc(C#N)n23)cc(OC[C@@]2(N)CCC(F)(F)C2)c1C#N (mixture of isomers) [US20240124450, Example 12]
- IC50 [3]: 1.8 nM
- IC50 [1]: 4.8 nM
- IC50 [2]: 2.4 nM

Compound: CC[C@@H]1CCC[C@](N)(COc2cc(-c3cnc4cccc(OC)n34)cc(OC)c2C#N)C1 [US20240124450, Example 16]
- IC50 [1]: 1.7 nM
- IC50 [2]: 0.8 nM
